In US10202371B2, “Oxazolidin-2-one-pyrimidine derivatives and the use thereof as phosphatidylinositol-3-kinase inhibitors” (Novartis AG, priority 2012, dated 2019):

Experiments:
human PI3Kβ = human PI3Kβ (Homo sapiens (Human), UniProt P42338); assay: Biochemical assay PI3Kbeta (KinaseGlo luminescence); settings: 1 μM ATP, read-out: PI3Kb/IC50
Excerpt: Cancer Ther. accepted). […] (L-alpha-phosphatidylinositol (PI), Liver, Bovine) were obtained from Avanti Polar Lipid (Cat. […] (Avanti, Cat. No. 840046X) or L-α-phosphatidylinositol (PI) was obtained from Avanti Polar Lipid (Cat. […] Luminescence is a well established readout to determine ATP concentrations and can thus be used to follow the activity of many kinases regardless of their substrate. The Kinase Glo Luminescent Kinase Assay (Promega, Madison/WI, USA) is a homogeneous HTS method of measuring kinase activity by quantifying the amount of ATP remaining in solution following a kinase reaction. 50 nL of compound dilutions were dispensed onto black 384-well low volume Non Binding Styrene (NBS) plates (Costar Cat. No. […] L-α-phosphatidylinositol (PI), provided as 10 mg/ml solution in methanol, was transferred into a glass tube and dried under nitrogen beam. […] NVP-BGT226 was used as a reference compound and included in all assay plates in the form of 16 dilution points in duplicate. […] All fits were performed with the program XLfit4 (ID Business Solutions, Guildford, UK).

human PI3Kδ = human PI3Kδ (Homo sapiens (Human), UniProt O00329); assay: Biochemical assay PI3Kdelta (Adapta TR-FRET); settings: read-out: PI3Kd/IC50
Excerpt: Catalytically active human PI3Kα, PI3Kβ, PI3Kδ, and mTOR were cloned, expressed and purtified as described ([…], Stauffer F, Brueggen J, Furet […], de Pover A, Schoemaker K, Fabbro D, Gabriel D, Simonen M, Murphy […], Garcia-Echeverria C (2008), Mol Cancer Ther. 7:1851-63 and […], Huh […], Schoemaker K, De Pover […], Garcia-Echeverria C, Voliva CF (2011), Mol. Cancer Ther. accepted). The TR-FRET AdaptaTM Universal Kinase Assay Kit was purchased from Invitrogen Corporation (Carlsbad/CA, USA) (Cat. No. PV5099). The kit contains the following reagents: Adapta Eu-anti-ADP Antibody (Europium labeled anti-ADP antibody in HEPES buffered saline, Cat. No. PV5097), Alexa Fluor® 647-labeled ADP tracer (Alexa Fluor® 647-labeled ADP tracer in HEPES buffered saline, Cat. No. PV5098), proprietary TR-FRET dilution buffer pH 7.5 (Cat. No. PV3574). PIK3CD substrate Phosphatidylinositol was obtained from Invitrogen (vesicules consisting of 2 mM PI in 50 mM HEPES pH7.5; Cat. No. PV5371). […] TR-FRET assays for protein kinases use a long-lifetime lanthanide Terbium or Europium chelates as the donor species which overcome interference from compound autofluorescence or light scatter from precipitated compounds, by introducing a delay after excitation by a flashlamp excitation source. Results are often expressed as a ratio of the intensities of the acceptor and donor fluorophores. The ratiometric nature of such a value corrects for differences in assay volumes between wells, as well as corrects for quenching effects due to colored compounds. The AdaptaTM assay can be divided into two phases: a kinase reaction phase and an ADP detection phase. In the kinase reaction phase, all kinase reaction components are added to the well and the reaction is allowed to incubate for a set period of time specific for each kinase. After the reaction, a detection solution of Eu-labeled anti-ADP antibody, Alexa Fluor® 647-labeled ADP tracer, and EDTA (to stop the kinase reaction) are added to the assay well. ADP formed by the kinase reaction will displace the Alexa Fluor® 647-labeled ADP tracer from the antibody, resulting in a decrease in TR-FRET signal. In the presence of an inhibitor, the amount of ADP formed by the kinase reaction is reduced, and the resulting intact antibody-tracer interaction maintains a high TR-FRET signal. In the AdaptaTM assay, the donor (Europium-anti-ADP antibody) is excited at 340 nm and will transfer its energy to the acceptor (Alexa Fluor® 647-labeled ADP tracer). The emission from the Alexa Fluor® 647 can be monitored with a filter centered at 665 nm because it is located between the emission peaks of the donor, which is measured at 615/620 nm. […] Reactions were stopped with 5 μL of a mixture of EDTA containing the Eu-labeled anti-ADP antibody and the Alexa Fluor® 647-labeled ADP tracer in TR-FRET dilution buffer (proprietary to IVG). […] Data are analyzed using Excel fit software or Graphpad Prism. EC50 values were derived by fitting a sigmoidal dose-response curve to a plot of assay readout over inhibitor concentration. All fits were performed with the program XLfit4 (ID Business Solutions, Guildford, UK). […] All fits were performed with the program XLfit4 (ID Business Solutions, Guildford, UK).

Sequence of human PI3Kδ (O00329 2-1044): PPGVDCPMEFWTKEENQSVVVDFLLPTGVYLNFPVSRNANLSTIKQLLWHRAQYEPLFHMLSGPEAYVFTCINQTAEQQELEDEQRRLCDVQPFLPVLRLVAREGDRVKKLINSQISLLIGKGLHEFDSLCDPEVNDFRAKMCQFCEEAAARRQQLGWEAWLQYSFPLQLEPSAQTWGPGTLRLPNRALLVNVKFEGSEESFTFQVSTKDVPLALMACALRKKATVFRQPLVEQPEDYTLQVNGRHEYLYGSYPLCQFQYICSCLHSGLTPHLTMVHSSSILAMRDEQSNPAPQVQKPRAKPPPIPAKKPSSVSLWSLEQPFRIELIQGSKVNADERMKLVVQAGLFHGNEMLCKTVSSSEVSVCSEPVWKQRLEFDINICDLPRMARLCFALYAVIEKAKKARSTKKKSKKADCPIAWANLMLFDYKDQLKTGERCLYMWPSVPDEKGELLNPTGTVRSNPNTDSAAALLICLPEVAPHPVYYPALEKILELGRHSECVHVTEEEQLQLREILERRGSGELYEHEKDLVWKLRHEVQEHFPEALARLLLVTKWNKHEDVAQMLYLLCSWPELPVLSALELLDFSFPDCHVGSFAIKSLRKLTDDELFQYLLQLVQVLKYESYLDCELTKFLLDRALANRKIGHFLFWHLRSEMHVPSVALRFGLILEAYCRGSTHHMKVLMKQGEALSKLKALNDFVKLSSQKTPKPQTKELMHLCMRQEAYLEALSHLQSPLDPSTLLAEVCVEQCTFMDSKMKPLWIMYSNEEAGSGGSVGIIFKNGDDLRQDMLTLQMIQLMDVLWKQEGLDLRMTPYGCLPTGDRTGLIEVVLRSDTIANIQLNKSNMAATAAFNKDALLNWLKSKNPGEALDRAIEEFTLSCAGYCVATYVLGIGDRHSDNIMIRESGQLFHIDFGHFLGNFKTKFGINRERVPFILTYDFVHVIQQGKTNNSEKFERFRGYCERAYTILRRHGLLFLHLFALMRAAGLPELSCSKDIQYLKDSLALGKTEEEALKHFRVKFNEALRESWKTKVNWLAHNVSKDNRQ
Sequence of human PI3Kβ (P42338 2-1070): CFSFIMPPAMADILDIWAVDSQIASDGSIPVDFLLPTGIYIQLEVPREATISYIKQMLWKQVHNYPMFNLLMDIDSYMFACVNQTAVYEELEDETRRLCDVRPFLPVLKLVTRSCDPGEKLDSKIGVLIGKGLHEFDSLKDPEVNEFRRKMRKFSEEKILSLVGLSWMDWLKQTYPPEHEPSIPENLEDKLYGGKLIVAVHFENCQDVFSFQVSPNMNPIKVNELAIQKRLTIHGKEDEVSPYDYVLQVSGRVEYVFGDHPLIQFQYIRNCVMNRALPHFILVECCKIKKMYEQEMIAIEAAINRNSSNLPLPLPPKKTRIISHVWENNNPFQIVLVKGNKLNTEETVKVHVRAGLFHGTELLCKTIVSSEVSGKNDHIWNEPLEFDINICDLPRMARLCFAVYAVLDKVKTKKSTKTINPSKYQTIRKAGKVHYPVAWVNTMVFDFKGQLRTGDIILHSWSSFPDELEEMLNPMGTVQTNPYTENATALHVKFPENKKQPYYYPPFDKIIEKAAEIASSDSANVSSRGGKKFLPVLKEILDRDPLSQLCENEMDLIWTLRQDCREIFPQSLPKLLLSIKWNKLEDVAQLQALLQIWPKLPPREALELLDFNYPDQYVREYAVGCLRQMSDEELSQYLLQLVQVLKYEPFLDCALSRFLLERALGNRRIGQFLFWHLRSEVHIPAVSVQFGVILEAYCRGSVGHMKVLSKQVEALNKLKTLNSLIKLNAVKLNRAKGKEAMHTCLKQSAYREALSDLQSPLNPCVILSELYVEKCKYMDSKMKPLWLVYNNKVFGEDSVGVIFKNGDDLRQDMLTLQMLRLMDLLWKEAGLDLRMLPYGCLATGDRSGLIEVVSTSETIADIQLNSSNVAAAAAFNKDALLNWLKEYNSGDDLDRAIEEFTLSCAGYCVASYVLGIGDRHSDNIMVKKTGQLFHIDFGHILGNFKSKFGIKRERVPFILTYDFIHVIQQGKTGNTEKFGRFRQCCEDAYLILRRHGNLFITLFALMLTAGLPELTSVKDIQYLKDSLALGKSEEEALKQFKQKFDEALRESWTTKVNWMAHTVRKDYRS

Nc1ncc(-c2cc(N3C(=O)O[C@@H](c4ccccc4)[C@@H]3CO)nc(N3CCOCC3)n2)c(C(F)(F)F)n1 [Example 10]
IC50 (human PI3Kβ): 0.005 µM | IC50 (human PI3Kδ): 0.031 µM

COCCOc1ccc([C@@H]2OC(=O)N(c3cc(-c4cnc(N)nc4C(F)(F)F)nc(N4CCOCC4)n3)[C@H]2CO)cc1 [Example 12]
IC50 (human PI3Kδ): 0.004 µM

C[C@H]1[C@@H](c2nccs2)OC(=O)N1c1cc(-c2cnc(N)nc2C(F)(F)F)nc(N2CCOCC2)n1 [Example 11]
IC50 (human PI3Kβ): 0.01 µM

CC1C(c2cccnc2)OC(=O)N1c1cc(-c2cnc(N)nc2C(F)(F)F)nc(N2CCOCC2)n1 (centres unmarked) [Example 9]
IC50 (human PI3Kδ): 0.01 µM

Nc1ncc(-c2cc(N3C(=O)O[C@@H](c4ccc(OCCO)cc4)[C@@H]3CO)nc(N3CCOCC3)n2)c(C(F)(F)F)n1 [Example 13]
IC50 (human PI3Kβ): 0.011 µM | IC50 (human PI3Kδ): 0.003 µM

CCC1C(c2cccnc2)OC(=O)N1c1cc(-c2cnc(N)nc2C(F)(F)F)nc(N2CCOCC2)n1 (centres unmarked) [Example 8]
IC50 (human PI3Kβ): 0.067 µM

CC[C@H]1[C@H](c2nccs2)OC(=O)N1c1cc(-c2cnc(N)nc2C(F)(F)F)nc(N2CCOCC2)n1 [Example 7]
IC50 (human PI3Kδ): 0.041 µM

COc1ccc([C@@H]2OC(=O)N(c3cc(-c4cnc(N)nc4C(F)(F)F)nc(N4CCOCC4)n3)[C@H]2CO)cc1 [Example 3, (4S,5S)-3-(2′-Amino-2-morpholino-4′-(trifluoromethyl)-[4,5′-bipyrimidin]-6-yl)-4-(hydroxymethyl)-5-(4-methoxyphenyl)oxazolidin-2-one]
IC50 (human PI3Kβ): 0.007 µM | IC50 (human PI3Kδ): 0.004 µM

CC[C@H]1[C@H](c2ccc(OC)cc2)OC(=O)N1c1cc(-c2cnc(N)nc2C(F)(F)F)nc(N2CCOCC2)n1 (relative stereo) [Example 2, (4S*,5S*)-3-(2′-amino-2-morpholino-4′-(trifluoromethyl)-[4,5′-bipyrimidin]-6-yl)-4-ethyl-5-(4-methoxyphenyl)oxazolidin-2-one]
IC50 (human PI3Kβ): 0.096 µM

C[C@H]1[C@H](c2ccccc2)OC(=O)N1c1cc(-c2cnc(N)nc2C(F)(F)F)nc(N2CCOCC2)n1 [Example 5]
IC50 (human PI3Kδ): 0.147 µM

C[C@H]1[C@H](c2nccs2)OC(=O)N1c1cc(-c2cnc(N)nc2C(F)(F)F)nc(N2CCOCC2)n1 [Example 1, (4S,5R)-3-(2′-Amino-2-morpholin-4-yl-4′-trifluoromethyl-[4,5′]bipyrimidinyl-6-yl)-4-methyl-5-thiazol-2-yl-oxazolidin-2-one]
IC50 (human PI3Kβ): 0.009 µM
